Measured values taken from patent publication US10030012B2, “Piperidin-1-yl and azepin-1-yl carboxylates as muscarinic M4 receptor agonists” (Heptares Therapeutics Limited, priority 2013, dated 2018).

Assays:
[1] = biological target: human M4 receptor (Homo sapiens (Human), UniProt P08173); assay: In vitro M4 functional assay (intracellular calcium, FLiPR Tetra); format: cell-based; details: for EC50: CHOK1 cells stably expressing human M4 receptor and Gα16, calcium flux; for Emax: relative efficacy to an EC100 concentration of acetylcholine, read-out: M4 % RE
Outline: (§1)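 CHOK1 cells stably expressing human M4 or M2 with Gα16, loaded with Calcium 5 dye 45 min at 37° C in HBSS/HEPES/BSA/probenecid pH 7.4. Fluorescence read 5 min after compound; EC50 from ten-point half-log curves, duplicate wells, four-parameter fit; efficacy relative to EC100 acetylcholine.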

[2] = biological target: human M2 receptor (Homo sapiens (Human), UniProt P08172); assay: In vitro M2 functional assay (intracellular calcium, FLiPR Tetra); format: cell-based
Outline: as §1

[3] = CHOK1 cells stably expressing human M2 receptor and Gα16, calcium flux, No Response = no significant response of calcium flux indicative of agonism

Sequence of human M2 receptor (P08172 whole entry): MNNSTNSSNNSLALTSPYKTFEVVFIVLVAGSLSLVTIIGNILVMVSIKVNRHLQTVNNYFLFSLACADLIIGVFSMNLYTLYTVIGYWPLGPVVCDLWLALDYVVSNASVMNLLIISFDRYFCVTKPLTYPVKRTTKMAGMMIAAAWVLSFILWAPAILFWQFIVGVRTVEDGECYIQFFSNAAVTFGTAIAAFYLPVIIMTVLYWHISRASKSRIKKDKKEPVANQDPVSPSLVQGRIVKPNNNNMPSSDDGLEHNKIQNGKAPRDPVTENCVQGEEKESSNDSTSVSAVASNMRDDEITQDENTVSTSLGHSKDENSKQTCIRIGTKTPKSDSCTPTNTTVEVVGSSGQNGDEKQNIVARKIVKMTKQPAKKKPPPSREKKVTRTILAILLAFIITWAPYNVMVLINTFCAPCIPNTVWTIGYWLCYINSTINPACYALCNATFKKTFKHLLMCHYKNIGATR
Sequence of human M4 receptor (P08173 whole entry): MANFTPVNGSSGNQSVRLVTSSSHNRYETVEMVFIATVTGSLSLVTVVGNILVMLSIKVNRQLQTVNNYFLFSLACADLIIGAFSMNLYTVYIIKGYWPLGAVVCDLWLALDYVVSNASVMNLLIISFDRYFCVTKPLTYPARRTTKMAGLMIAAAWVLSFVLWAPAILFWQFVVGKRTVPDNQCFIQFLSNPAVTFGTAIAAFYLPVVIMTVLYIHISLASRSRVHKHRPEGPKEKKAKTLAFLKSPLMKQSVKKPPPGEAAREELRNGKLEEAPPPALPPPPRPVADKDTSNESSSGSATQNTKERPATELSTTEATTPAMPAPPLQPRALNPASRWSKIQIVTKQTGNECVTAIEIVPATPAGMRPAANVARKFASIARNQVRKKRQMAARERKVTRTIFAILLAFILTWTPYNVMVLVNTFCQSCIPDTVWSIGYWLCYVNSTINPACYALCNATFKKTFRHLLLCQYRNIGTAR

How did the EC50 [1] turn out when CCOC(=O)N1CCCC(N2CCC(c3nccn3CC)CC2)CC1 (stereo not shown) [Example 10, Ethyl 4-[4-(1-ethyl-1H-imidazol-2-yl)piperidin-1-yl]azepane-1-carboxylate] was run?
Its EC50 is 1740 nM.

What about the Emax [1] of the same compound?
The Emax was 44%.

What about the “M2 EC50” value [2, 3] of the same compound?
Its value is “No Response”.

Which EC50 [1] does the source give for CCOC(=O)N1CCC[C@@H](N2CCC(c3cccnc3OC)CC2)CC1 [Example 86, Ethyl (4R)-4-[4-(2-methoxypyridin-3-yl)piperidin-1-yl]azepane-1-carboxylate] here?
The EC50 was 310 nM.

And the Emax [1]?
Its Emax is 67%.

And the “M2 EC50” value [2, 3]?
The value was “No response”.

With CCOC(=O)N1CCCC(N2CCC(c3nccn3CC(=O)NC3CCCCC3)CC2)CC1 (stereo not shown) [Example 2, Ethyl 4-(4-{1-[(cyclohexylcarbamoyl)methyl]-1H-imidazol-2-yl}piperidin-1-yl)azepane-1-carboxylate] as the compound, how does the EC50 [1] read?
The EC50 was 1870 nM.

And the Emax [1]?
The Emax was 51%.

And the “M2 EC50” value [2, 3]?
The value was “No Response”.

How did the EC50 [1] turn out when CCOC(=O)N1CCCC(N2CCC(OC)(c3nccn3C)CC2)CC1 (stereo not shown) [Example 13, Ethyl 4-[4-methoxy-4-(1-methyl-1H-imidazol-2-yl)piperidin-1-yl]azepane-1-carboxylate] was run?
The EC50 was 2880 nM.

And the Emax [1]?
The Emax was 24%.

And the “M2 EC50” value [2, 3]?
Its value is “No Response”.

CCOC(=O)N1CCCC(N2CCC(c3nc(C(F)(F)F)ncc3OC)CC2)CC1 (stereo not shown) [Example 60, Ethyl 4-{4-[5-methoxy-2-(trifluoromethyl)pyrimidin-4-yl]piperidin-1-yl}azepane-1-carboxylate] was tested. Which EC50 [1] did it give?
The EC50 was 180 nM.

What about the Emax [1] of the same compound?
The Emax was 68%.

And the “M2 EC50” value [2, 3]?
Its value is “No Response”.

What does the source list for CCOC(=O)N1CCC(N2CCC(c3cccc(OC)n3)CC2)CC1 [Example 32, Ethyl 4-[4-(6-methoxypyridin-2-yl)piperidin-1-yl]piperidine-1-carboxylate]?
EC50 [1]: 220 nM; Emax [1]: 73%; M2 EC50 [2, 3]: No Response

Which results are given for CCOC(=O)N1CCCC(N2CCC(c3cccn(CC)c3=O)CC2)CC1 (stereo not shown) [Example 57, Ethyl 4-[4-(1-ethyl-2-oxo-1,2-dihydropyridin-3-yl)piperidin-1-yl]azepane-1-carboxylate]?
EC50 [1]: 890 nM; Emax [1]: 37%; M2 EC50 [2, 3]: No Response

With CCOC(=O)N1CCCC(N2CCC(c3cccnc3OC(F)F)CC2)CC1 (stereo not shown) [Example 52, Ethyl 4-{4-[2-(difluoromethoxy)pyridin-3-yl]piperidin-1-yl}azepane-1-carboxylate] as the compound, how does the EC50 [1] read?
The EC50 was 10 nM.

What about the Emax [1] of the same compound?
Its Emax is 96%.

What about the EC50 [2, 3] of the same compound?
The EC50 was greater than 10000 nM.

What about the activation at 10 µM ([2]; response at 10 μM compound, relative to an EC100 concentration of acetylcholine, read-out: M2 % RE @ 10 μM) of the same compound?
Its activation at 10 µM is 25%.
